Laboratory results published in the supplement of paper PMC10307832.

Legend:
Assay in all cases: relative viability (nuclei count vs DMSO), 5 days (fraction); higher = more cells survive
[1] = compound: Cc1ccc(C(=O)N(CCCN)[C@@H](c2nc3cc(Cl)ccc3c(=O)n2Cc2ccccc2)C(C)C)cc1 [Ispinesib] + CC1(C)CCC(c2ccc(Cl)cc2)=C(CN2CCN(c3ccc(C(=O)NS(=O)(=O)c4ccc(N[C@H](CCN5CCOCC5)CSc5ccccc5)c(S(=O)(=O)C(F)(F)F)c4)cc3)CC2)C1 [Navitoclax] (partner 0.5 µM)
In short: (§1)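 Relative viability is defined as nuclei in treated wells over nuclei in vehicle wells. Duplicate plates were run and medians reported. Lung cancer cell lines in 1536-well plates were dosed by pin tool one day after seeding, with one drug or with a fixed anchor-drug dose plus five library-drug doses (not always all listed) in √10 steps, and nuclei were counted after 5 days.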

[2] = compound: Cc1ccc(C(=O)N(CCCN)[C@@H](c2nc3cc(Cl)ccc3c(=O)n2Cc2ccccc2)C(C)C)cc1 [Ispinesib] + C[C@]1(O)C[C@@H](c2nc(-c3ccc4ccc(-c5ccccc5)nc4c3)c3c(N)nccn32)C1 [Linsitinib] (partner 1 µM)
In short: as §1

[3] = compound: C[C@]1(O)C[C@@H](c2nc(-c3ccc4ccc(-c5ccccc5)nc4c3)c3c(N)nccn32)C1 [Linsitinib] + CC(C)C[C@H](NC(=O)[C@H](Cc1ccccc1)NC(=O)c1cnccn1)B(O)O [Bortezomib] (partner 0.002 µM)
In short: as §1

[4] = compound: Cc1ccc(C(=O)N(CCCN)[C@@H](c2nc3cc(Cl)ccc3c(=O)n2Cc2ccccc2)C(C)C)cc1 [Ispinesib] + CC(C)C[C@H](NC(=O)[C@H](Cc1ccccc1)NC(=O)c1cnccn1)B(O)O [Bortezomib] (partner 0.002 µM)
In short: as §1

Cell Line	relative viability ([1]; first compound 0.003162 µM)	relative viability ([1]; first compound 0.01 µM)	relative viability ([1]; first compound 0.03162 µM)	relative viability ([1]; first compound 0.1 µM)	relative viability ([2]; first compound 0.003162 µM)	relative viability ([2]; first compound 0.01 µM)	relative viability ([2]; first compound 0.03162 µM)	relative viability ([2]; first compound 0.1 µM)	relative viability ([3]; first compound 0.01 µM)	relative viability ([3]; first compound 0.03162 µM)	relative viability ([3]; first compound 0.1 µM)	relative viability ([3]; first compound 0.3162 µM)	relative viability ([3]; first compound 1 µM)	relative viability ([4]; first compound 0.003162 µM)	relative viability ([4]; first compound 0.01 µM)	relative viability ([4]; first compound 0.03162 µM)	relative viability ([4]; first compound 0.1 µM)	relative viability ([1]; first compound 0.001 µM)	relative viability ([2]; first compound 0.001 µM)	relative viability ([4]; first compound 0.001 µM)
NCI-H727	0.519	0.507	0.387	0.26	0.303	0.235	0.244	0.223	0.86	0.856	0.948	0.392	0.501	1.71	1.21	0.762	0.337			
LOU-NH91	0.71	0.64	0.407	0.333	0.908	0.887	0.695	0.677	0.436	0.504	0.581	0.429	0.478	0.507	0.575	0.444	0.395	0.647	0.875	0.507
NCI-H1975	1.25	1.27	1.14	0.186	0.946	1.06	0.508	0.189	0.332	0.348	0.373	0.404	0.296	0.437	0.331	0.19	0.261	1.16	1.01	0.471
PC-3 [JPC-3]	0.875	0.782	0.797	0.784	0.917	0.949	0.989	1.03	0.745	0.824	0.821	0.637	0.713	0.869	0.903	0.763	0.297	0.826	0.937	0.796
NCI-H2126	0.862	0.861	0.842	0.818	0.739	0.749	0.701	0.775	1.13	1.14	1.13	0.687	1.06	1.14	1.24	1.14	0.773	0.844	0.732	1.1
LU99A	0.757	1.02	0.627	0.141	0.587	0.509	0.336	0.167	1.15	1.04	1.19	0.34	0.693	1.12	1.33	0.223	0.183	0.857	0.573	1.06
NCI-H23	0.783	1.04	0.794	0.472	0.559	0.707	0.618	0.28	0.96	1.17	1.06	0.681	0.589	1.09	1.6	0.331	0.241	0.803	0.568	0.977
PC-14	1.14	1.22	0.43	0.104	1.13	1.1	0.862	0.17	0.792	0.762	1.02	0.923	0.767	1.01	0.962	0.71	0.0916	1.13	1.08	0.859
